{"source": "patent US20040247703A1", "about": "“Composition for inhibiting glutamate-mediated neurotoxicity comprising ginsenoside Rg3 or ginsenoside Rh2” (priority 2002, published 2004)", "key": {"[1]": {"tested_on": "NMDA receptor", "assay": "NMDA receptor-mediated Ca2+ influx by Ca2+-imaging technique (fura-2/AM) in cultured hippocampus nerve cells", "type": "cell-based, mouse", "details": "for % inhibition of NMDA receptor-mediated [Ca^2+]i infulx: cultured mouse hippocampus nerve cell; for inhibition effect for NMDA receptor activity, screening of pure 20(S) compounds, in words: 9 kinds of 20(S) compounds, FIG. 5; for NMDA receptor-mediated Ca^2+ influx inhibition, comparison of isomer forms, in words: Table 1 comparison of 20(S)-form with mixture of S-form and R-form", "method": "(§1) Hippocampus nerve tissues were separated from an 18-day-old fetus to 1-day-old newborn white mouse using a dissection microscope. The tissues were treated with Leibovitz L-15 medium (Gibco, Grand Island, N.Y.) including 0.05% papain at 37° C. for 20 minutes. Then, the solution was washed with Ca^2+ or Mg^2+ free Hank's Balanced Salt Solution (Gibco, Grand Island, N.Y.) several times, and the single hippocampus nerve cell was separated mechanically by adjusting the pore size of the Pasteur pipette. The cell was cultured on a cover slip that was treated with poly-L-lysine in a concentration of 1.5×10^5 cell/ml.\n(§2) The cell was cultured in a culturing solution of Neurobasla/B27 (Gibco, Grand Island, N.Y.) to which 0.5 mM L-glutamine, 25 μM glutamate, 25 μM 2-mercaptoethanol, 100 U/ml penicillin and 100 μg/ml streptomycin were added. Half of the medium was replaced twice a week with a medium having no added glutamate. Cells that were cultured for 7 to 15 days were used in the experiment.\nFura-2/AM (Molecular probes: Eugene, Oreg.) of the acetoxymethyl-ester form was used as a fluorescent Ca^2+ label. The hippocampus nerve cell was primarily incubated with 5 μM fura-2/AM and 0.001% Pluronic F-127 in HEPES buffer solution (unit mM: 150 NaCl, 5 KCl, 1 MgCl2,2 CaCl2,10 HEPES, 10 glucose, pH 7.4) at room temperature for 40 to 60 minutes and then washed with the HEPES buffer solution several times. After stabilizing the cell for 10 minutes, the change in intracellular Ca ion concentration was determined using an inverted microscope.\nSpecifically, the cell was exposed selectively to the excitation wavelengths (340 nm and 380 nm) from a xenon arc lamp by a computer-controlled filter wheel (Sutter Instruments, CA). Data was obtained every 2 seconds and a shutter was placed at the light-exposed portion so as to prevent any photo-toxicity on the cell. Emitter fluorescence light, which passed through a 515 nm long-pass filter, reached a cooling CCD camera. The ratios of intensity (340/380 nm) were converted to intracellular free Ca^2+ concentration ([Ca^2+]i) by digital fluorescence analyzer. Analysis of all image data was performed using Universal Imaging software (West Chester, Pa.).\nMethod for screening NMDA receptor inhibitor via NMDA receptor activity in a hippocampus nerve cell was performed by a Ca^2+-imaging technique using a Ca-dependent dye, fura-2/AM, as explained in Example 2.\nTherefore, the system was used in the NMDA receptor inhibitor screening of ginseng components.\nAs stated above, the experiments of FIGS. 2A to 2C were to determine Ca^2+ influx caused by NMDA activity, when NMDA was administered to the cultured hippocampus nerve cell (5˜10 seconds), by using the Ca^2+-imaging technique. […]"}, "[2]": {"tested_on": "white mouse hippocampus nerve cells", "assay": "MTT assay, survival of nerve cells against cytotoxicity by NMDA", "type": "cell-based", "details": "pretreated 1 minute, NMDA 10 minutes, MTT after 24 hours; 100 μg/ml GTS, 10 μM Rg3; FIG. 3", "method": "3-(4,5-dimethylthiazole-2-yl)-2,5-diphenyltetrazolium bromide (MTT) assay was carried out to determine the survival rate of cells against cytotoxicity by NMDA in nerve cells. Primarily cultured white mouse hippocampus nerve cells were cultured in a 24-well plate, to which a Neurobasal/B27 (Gibco, Grand Island N.Y.) medium including 0.5 mM L-glutamine, 25 μM glutamate, 25 μM 2-mercaptoethanol, 100 U/ml penicillin and 100 μg/ml streptomycin was added for 6-14 days. The cells were pretreated with 100 μg/ml GTS and 10 μM Rg3 using a Mg^2+ free HEPES buffered solution including 1 μM glycine for 1 minute and then treated with NMDA for 10 minutes. Thereafter, the medium was exchanged with the normal culture medium. Twenty-four hours after such treatment, the cells were treated directly with a 50 μl MTT solution in phosphate buffered saline (PBS) (1 mg/ml). Four hours after MTT treatment, the supernatant was removed, and the produced formazan was resolved in 100 μl dimethylsulfoxide (DMSO). Optical density at 560 nm was read using an automated spectrophotometric plate reader."}, "[3]": {"tested_on": "hippocampus nerve cells", "details": "literature (Lim, J. H. et al. 1997); cited from earlier work"}, "[4]": {"tested_on": "cultured cortical neuron", "details": "literature (Kim, Y. C. et al. 1998); cited from earlier work"}, "[5]": {"tested_on": "NMDA receptor", "assay": "NMDA receptor-mediated membrane current by whole-cell patch-clamp in hippocampus nerve cells", "type": "cell-based, mouse", "details": "10 μM; FIG. 2D", "method": "as §1\nas §2, with “Cells that were cultured for 7 to 15 days were used in the experiment.” left out\nWhole-cell voltage-clamp recordation was carried out using a perforated patch-clamp method. […] After 10 minutes, the membrane current was determined. […]\nAs a solution that allows only the monovalent ion to pass the membrane to produce an electric current, Nystatin stock solution of 25 mg/ml was diluted into a concentration of 250 μg/ml and added to the internal solution. […] The membrane voltage was recorded using an EPC-9 amplifier and Pulse/Pulsefit software (HEKA, Germany). […]"}}}
{"molecule": "CC(C)=CCC[C@](C)(O)[C@H]1CC[C@]2(C)[C@@H]1[C@H](O)C[C@@H]1[C@@]3(C)CC[C@H](O[C@@H]4O[C@H](CO)[C@@H](O)[C@H](O)[C@H]4O[C@@H]4O[C@H](CO)[C@@H](O)[C@H](O)[C@H]4O)C(C)(C)[C@@H]3CC[C@]12C", "note": "[20(S)-ginsenoside Rg3]", "values": [{"measurement": "% inhibition of NMDA receptor-mediated [Ca^2+]i infulx", "setting": "[1]; 1 μM", "value": "30.4 ± 2.3", "unit": "%"}, {"measurement": "inhibition effect for NMDA receptor activity, screening of pure 20(S) compounds, in words", "setting": "[1]", "value": "most excellent inhibition effect"}]}
{"molecule": "CC(C)=CCC[C@](C)(O)[C@H]1CC[C@]2(C)[C@@H]1[C@H](O)C[C@@H]1[C@@]3(C)CC[C@H](O[C@@H]4O[C@H](CO)[C@@H](O)[C@H](O)[C@H]4O)C(C)(C)[C@@H]3CC[C@]12C", "note": "[20(S)-ginsenoside Rh2]", "values": [{"measurement": "% inhibition of NMDA receptor-mediated [Ca^2+]i infulx", "setting": "[1]; 1 μM", "value": "47.1 ± 4.3", "unit": "%"}, {"measurement": "inhibition effect for NMDA receptor activity, screening of pure 20(S) compounds, in words", "setting": "[1]", "value": "most excellent inhibition effect"}, {"measurement": "NMDA receptor-mediated Ca^2+ influx inhibition, comparison of isomer forms, in words", "setting": "[1]", "value": "superior effect to the mixture of S-form and R-form isomers"}]}
{"molecule": "N[C@H](CCCP(=O)(O)O)C(=O)O", "note": "[D-APV, D(−)-2-amino-5-phosphono-pentanoic acid, reference compound]", "values": [{"measurement": "cell viability against neurotoxicity caused by NMDA, in words", "setting": "[2]", "value": "effectively increase cell viability"}, {"measurement": "Ca^2+ concentration ([Ca^2+]i) after NMDA application, in words", "setting": "[1]; FIG. 1, repeated NMDA applications", "value": "significantly decreased"}]}
{"molecule": "CC(C)=CCC[C@](C)(O[C@@H]1O[C@H](CO[C@@H]2O[C@H](CO)[C@@H](O)[C@H](O)[C@H]2O)[C@@H](O)[C@H](O)[C@H]1O)[C@H]1CC[C@]2(C)[C@@H]1[C@H](O)C[C@@H]1[C@@]3(C)CC[C@H](O[C@@H]4O[C@H](CO)[C@@H](O)[C@H](O)[C@H]4O[C@@H]4O[C@H](CO)[C@@H](O)[C@H](O)[C@H]4O)C(C)(C)[C@@H]3CC[C@]12C", "note": "[ginsenoside Rb1, reference compound]", "values": [{"measurement": "death of hippocampus nerve cells during cerebral ischemia, in words", "setting": "[3]", "value": "inhibits death of hippocampus nerve cells"}, {"measurement": "glutamate-induced neurotoxicity in cultured cortical neuron, in words", "setting": "[4]", "value": "inhibited"}]}
{"molecule": "CC(C)=CCC[C@](C)(O)[C@H]1CC[C@]2(C)[C@@H]1[C@H](O)C[C@@H]1[C@@]3(C)CC[C@H](O[C@@H]4O[C@H](CO)[C@@H](O)[C@H](O)[C@H]4O[C@@H]4O[C@H](CO)[C@@H](O)[C@H](O)[C@H]4O)C(C)(C)[C@@H]3CC[C@]12C", "note": "[ginsenoside Rg3]", "values": [{"measurement": "glutamate-induced neurotoxicity in cultured cortical neuron, in words", "setting": "[4]", "value": "inhibited"}, {"measurement": "NMDA receptor-mediated inward current, in words", "setting": "[5]", "value": "inhibits the inward current"}, {"measurement": "cell viability against neurotoxicity caused by NMDA, in words", "setting": "[2]", "value": "effectively increase cell viability"}, {"measurement": "% inhibition of NMDA receptor-mediated [Ca^2+]i infulx", "setting": "[1]; 1 μM", "value": "31.2 ± 2.5", "unit": "%"}, {"measurement": "NMDA receptor inhibition efficiency, screening of 10 ginsenosides, in words", "setting": "[1]; 10 μM, ginsenosides including isomers of C-20 position, FIGS. 2A and 2B", "value": "superior to those of other ginsenosides"}, {"measurement": "IC50", "setting": "[1]; Ca2+ influx on NMDA in cultured hippocampus nerve cell, read-out: IC50 of NMDA receptor inhibition (concentration dependence, FIG. 2C)", "value": 3.8, "unit": "µM"}, {"measurement": "NMDA receptor-mediated Ca^2+ influx inhibition, comparison of isomer forms, in words", "setting": "[1]", "value": "equivalent efficacy regardless of an S-form or R-form isomer and their mixture"}]}
{"molecule": "CC(C)=CCC[C@](C)(O)[C@H]1CC[C@]2(C)[C@@H]1[C@H](O)C[C@@H]1[C@@]3(C)CC[C@H](O[C@@H]4O[C@H](CO)[C@@H](O)[C@H](O)[C@H]4O)C(C)(C)[C@@H]3CC[C@]12C", "note": "[ginsenoside Rh2]", "values": [{"measurement": "% inhibition of NMDA receptor-mediated [Ca^2+]i infulx", "setting": "[1]; 10 μM", "value": "18.6 ± 2.7", "unit": "%"}]}
